What was measured:
HepG2 cells = assay: Cell viability (CellTiter96 AQueous One) in HepG2 cells; assay type: cell-based, human; conditions: all tested doses, 48 hr
Protocol: After the above treatments, 50 μl of culture media were collected, and subjected to glucose analysis using Molecular Probes Amplex Red glucose assay kit (Cat #A22189) according to the manufacturer's protocol. Cell numbers or viability in the culture plate after the above compound treatments were determined using Promega's CellTiter96® AQueous One Solution Cell Proliferation Assay kits, according to the manufacturer's protocol and instructions. In brief, after removing 50 μl of culture media for glucose assay, cells were incubated with AQueous One solution (25 μl stock solution and 50 μl prewarmed PBS/per well) at 37° C. for 1 hour, and the absorbance of OD490 nm in each sample was determined by the Bio-Tek microplate reader. Cell viability in culture wells were determined by the subtraction of OD490 nm in cultured cells with the OD490 nm in plain culture media (without seeding of cells). Glucose production in the culture cells were obtained by normalizing the glucose concentration in culture media by cell viability in each well. At least 3 samples per each treatment were examined for the above analysis. Data are presented as Mean±SEM of those samples. Experiments were repeated at least twice.

[1] = Body weight, gross morphology and walking behavior of treated Lepr^db/db mice; assay type: in vivo
Protocol: Body weights of the above treated mice were recorded daily using a balance and any visible abnormal animal gross morphology and walking behavior were monitored daily. After the treatments, animals were fasted overnight and then subjected to blood glucose or HbA1c assays, glucose tolerance tests or tissue collections.
After the treatments for 43 days, animals were fasted overnight and then subjected to blood glucose and glucose tolerance tests. After daily treatments of these compounds for 90 days, sera from these animals were collected and then subjected to blood HbA1c assays.

Glut4 = assay: QRT-PCR of Glut4 mRNA in AML-12 cells; assay type: cell-based, mouse
Protocol: For RNA analysis of basal Glut4 (Slc2a4) expression (in the absence of diabetic stimuli 8-CPT/Dex), amplified AML-12 cells were cultured on 24-well (1×10^5 cells/well) plates overnight in 10% FBS ITS- and Dex-free DMEM/F12 media. These cells were washed twice with PBS to remove residual sera and then were incubated with vehicle (0.024% DMSO) or with Compound #43 (300 ppb) in serum-free DMEM/F12 media for 24 hours.
For RNA analysis of Glut4 expression in AML-12 cells cultured under simulated diabetic conditions, amplified AML-12 cells were cultured on 24-well (2×10^5 cells/well) plates in 10% FBS ITS- and Dex-free DMEM/F12 media overnight. Then these cells were washed twice with PBS to remove any potential residual sera and then were serum-starved in plain DMEM/F12 media overnight. These serum-starved AML-12 cells were then incubated with vehicle (0.024% DMSO) or with Compound #43 (300 ppb) in the presence of diabetic stimuli, 0.1 mM 8-CPT (Sigma) and 0.5 μM Dex, in serum-free plain DMEM/F12 media for 6 and 24 hours.
Total liver RNA from saline- or Compound #43-treated Lepr^db/db mice was isolated using a Qiagen RNAeasy RNA isolation kit according to the Manufacturer's protocol. Total RNA from cultured cells was isolated using Trizol (Invitrogen) according to the manufacturer's protocol, and then incubated with DNase I to remove any potential contaminating genomic DNA. […]

[2] = Serum insulin, ALT and creatinine assays in Lepr^db/db mice; assay type: in vivo, mouse; conditions: 0.136 mg/kg ip daily
Protocol: Male Lepr^db/db mice at 38 days of age were intraperitoneally (ip) injected daily with physiological saline ([…]) containing 0.2% DMSO, and Compound #43 (0.136 mg per kilogram body weight, diluted in sterile physiological saline) for 52 days. Sera from 3-month-old wild-type (non-diabetic) C57 mice were also collected. After the treatments, these serum samples were collected and subjected to insulin, ALT and creatinine assays.
The serum levels of insulin, ALT and creatinine were determined using Themo-Fisher Scientific's Insulin Mouse ELISA kit (Cat #EMINS), Sigma's ALT Activity Assay kit (Cat #MAK052), and Abcam's Creatinine Assay kit (Cat #Ab65340) according to the manufacturer's protocol, respectively.

SMILES: C[Se]C[C@H]1O[C@@H](n2cnc3c(N)ncnc32)C(OC(C)=O)C1OC(C)=O (stereo partly drawn) [Compound #43, Adenosine, 5′-Se-methyl-5′-selino-, 2′,3′-diacetate]
- cell viability (HepG2 cells): no significant decrease of cell viability
- overt toxic effects (morphology, walking behavior, body weight) ([1]; 25 μg selenium or sulfur/kg ip daily, 3 months): no overt toxic effects
- overt toxic effects (morphology, walking behavior, body weight) ([1]; 25 μg selenium/kg ip daily, 90 days, from 41 days of age): no overt toxic effects
- visible toxic effects on gross morphological and walking behavior ([1]; acute single ip injection, 0.0054-5.4 mg/kg): did not cause any visible toxic effects
- effect on Glut4 mRNA expression (Glut4; 300 ppb with 8-CPT/Dex, 6 and 24 hours (FIG. 16B)): significant increase in Glut4 mRNA expression
- increase of basal Glut4 mRNA expression (Glut4; 300 ppb, serum-free, 24 hours (FIG. 16A)): about 2.1 fold
- decrease of serum insulin levels ([2]; 52 days (FIG. 24A)): about 80%
- serum ALT levels ([2]; 52 days (FIG. 24B)): significant decrease of serum ALT levels
- serum creatinine levels ([2]; 52 days (FIG. 24C)): no significant change in serum creatinine levels
